Reference: ChEMBL document CHEMBL1123843, “Anticoagulant peptides: nature of the interaction of the C-terminal region of hirudin with a noncatalytic binding site on thrombin” (J Med Chem, 1987)
Square brackets hold non-standard residues; d marks the D form. Peptide text beside a SMILES is read from it. sY = N[C@@H](Cc1ccc(OS(=O)(=O)O)cc1)C(=O)O; Sar = CNCC(=O)O

Tests used:
Prothrombin (Bos taurus) = Prothrombin (Bos taurus) (UniProt P00735); assay: Relative potency for fibrin clot inhibition compared to hirudin55-65.; format: functional; design: unit not given here
Prothrombin = Prothrombin (Bos taurus, UniProt P00735); assay: Inhibition of plasma fibrin clot formation by thrombin in vitro.; format: functional, cell-free

| Relative potency (Prothrombin (Bos taurus)) | IC50 (Prothrombin) [µM] | SMILES |
| --- | --- | --- |
| < 3 | > 200 | CC[C@H](C)[C@H](NC(=O)[C@H](CCC(=O)O)NC(=O)[C@H](CCC(=O)O)NC(=O)[C@H](Cc1ccccc1)NC(=O)[C@@H](N)CC(=O)O)C(=O)N[C@@H](C)C(=O)N[C@@H](CCC(=O)O)C(=O)N[C@@H](CCC(=O)O)C(=O)N[C@@H](Cc1ccc(OS(=O)(=O)O)cc1)C(=O)N[C@@H](CC(C)C)C(=O)N[C@@H](CCC(N)=O)C(=O)O (H-DFEEIAEE[sY]LQ-OH) |
| 12 | 59.1 | CC[C@H](C)[C@H](NC(=O)[C@H](CCC(=O)O)NC(=O)[C@H](CCC(=O)O)NC(=O)[C@H](Cc1ccccc1)NC(=O)[C@@H](N)CC(=O)O)C(=O)N1CCC[C@H]1C(=O)N[C@@H](CCC(=O)O)C(=O)N[C@@H](CCC(=O)O)C(=O)N[C@@H](CCC(=O)O)C(=O)N[C@@H](CC(C)C)C(=O)N[C@@H](C)C(=O)O (H-DFEEIPEEELA-OH) |
| 86 | 8.3 | CC(C)C[C@H](NC(=O)[C@H](Cc1ccc(OS(=O)(=O)O)cc1)NC(=O)[C@H](CCC(=O)O)NC(=O)[C@H](CCC(=O)O)NC(=O)[C@@H]1CCCN1C(=O)[C@H](CC(C)C)NC(=O)[C@H](CCC(=O)O)NC(=O)[C@H](CCC(=O)O)NC(=O)[C@H](Cc1ccccc1)NC(=O)[C@H](CC(=O)O)NC(=O)CN)C(=O)N[C@@H](CCC(N)=O)C(=O)O (H-GDFEELPEE[sY]LQ-OH) |
| 215 | 3.3 | CC[C@H](C)[C@H](NC(=O)[C@H](CCC(=O)O)NC(=O)[C@H](CCC(=O)O)NC(=O)[C@H](Cc1ccc(O)cc1)NC(=O)[C@H](CC(=O)O)NC(=O)CN)C(=O)N1CCC[C@H]1C(=O)N[C@@H](CCC(=O)O)C(=O)N[C@@H](CCC(=O)O)C(=O)N[C@@H](Cc1ccc(OS(=O)(=O)O)cc1)C(=O)N[C@@H](CC(C)C)C(=O)N[C@@H](CCC(N)=O)C(=O)O (H-GDYEEIPEE[sY]LQ-OH) |
| 52 | 13.6 | CC[C@H](C)[C@H](NC(=O)[C@H](CCC(=O)O)NC(=O)[C@H](CCC(=O)O)NC(=O)[C@H](Cc1ccccc1)NC(=O)[C@@H](N)CC(=O)O)C(=O)N1CCC[C@H]1C(=O)N[C@@H](CCC(=O)O)C(=O)N[C@@H](CCC(=O)O)C(=O)N[C@@H](C)C(=O)N[C@@H](CC(C)C)C(=O)N[C@@H](CCC(N)=O)C(=O)O (H-DFEEIPEEALQ-OH) |
| 41 | 17.3 | CC[C@H](C)[C@H](NC(=O)[C@H](CCC(=O)O)NC(=O)[C@H](CCC(=O)O)NC(=O)[C@H](Cc1ccccc1)NC(=O)[C@H](CC(=O)O)NC(=O)CN)C(=O)N(C)CC(=O)N[C@@H](CCC(=O)O)C(=O)N[C@@H](CCC(=O)O)C(=O)N[C@@H](Cc1ccc(OS(=O)(=O)O)cc1)C(=O)N[C@@H](CC(C)C)C(=O)N[C@@H](CCC(N)=O)C(=O)O (H-GDFEEI[Sar]EE[sY]LQ-OH) |
| < 3 | > 200 | CC(C)C[C@H](NC(=O)[C@H](Cc1ccc(OS(=O)(=O)O)cc1)NC(=O)[C@H](CCC(=O)O)NC(=O)[C@H](CCC(=O)O)NC(=O)[C@@H]1CCCN1C(=O)[C@H](C)NC(=O)[C@H](CCC(=O)O)NC(=O)[C@H](CCC(=O)O)NC(=O)[C@H](Cc1ccccc1)NC(=O)[C@@H](N)CC(=O)O)C(=O)N[C@@H](CCC(N)=O)C(=O)O (H-DFEEAPEE[sY]LQ-OH) |
| 26 | 27 | CC[C@H](C)[C@H](NC(=O)[C@H](CCC(=O)O)NC(=O)[C@H](CCC(=O)O)NC(=O)[C@H](Cc1ccccc1)NC(=O)[C@H](CC(=O)O)NC(=O)CN)C(=O)N[C@H](C)C(=O)N[C@@H](CCC(=O)O)C(=O)N[C@@H](CCC(=O)O)C(=O)N[C@@H](Cc1ccc(OS(=O)(=O)O)cc1)C(=O)N[C@@H](CC(C)C)C(=O)N[C@@H](CCC(N)=O)C(=O)O |
| < 3 | > 200 | CC(C)CC(NC(=O)[C@H](Cc1ccc(OS(=O)(=O)O)cc1)NC(=O)[C@H](CCC(=O)O)NC(=O)[C@H](CCC(=O)O)NC(=O)[C@@H]1CCCN1C(=O)C(CC(C)C)NC(=O)[C@H](CCC(=O)O)NC(=O)[C@H](CCC(=O)O)NC(=O)[C@H](Cc1ccccc1)NC(=O)[C@@H](N)CC(=O)O)C(=O)N[C@@H](C)C(=O)O (stereo in doubt) |
| 53 | 13.3 | CC[C@H](C)[C@H](NC(=O)[C@H](C)NC(=O)[C@H](CCC(=O)O)NC(=O)[C@H](Cc1ccccc1)NC(=O)[C@@H](N)CC(=O)O)C(=O)N1CCC[C@H]1C(=O)N[C@@H](CCC(=O)O)C(=O)N[C@@H](CCC(=O)O)C(=O)N[C@@H](Cc1ccc(OS(=O)(=O)O)cc1)C(=O)N[C@@H](CC(C)C)C(=O)N[C@@H](CCC(N)=O)C(=O)O (H-DFEAIPEE[sY]LQ-OH) |
| 17 | 42.8 | CC[C@H](C)[C@H](NC(=O)[C@H](CCC(=O)O)NC(=O)[C@H](CCC(=O)O)NC(=O)[C@H](Cc1ccccc1)NC(=O)[C@@H](N)CC(=O)O)C(=O)N1CCC[C@H]1C(=O)N[C@@H](CCC(=O)O)C(=O)N[C@@H](C)C(=O)N[C@@H](Cc1ccc(OS(=O)(=O)O)cc1)C(=O)N[C@@H](CC(C)C)C(=O)N[C@@H](CCC(N)=O)C(=O)O (H-DFEEIPEA[sY]LQ-OH) |
| < 3 | > 200 | CC[C@H](C)[C@H](NC(=O)[C@H](CCC(=O)O)NC(=O)[C@H](CCC(=O)O)NC(=O)[C@H](Cc1ccccc1)NC(=O)[C@@H](N)CC(=O)O)C(=O)N1CCC[C@H]1C(=O)N[C@@H](CCC(=O)O)C(=O)N[C@@H](CCC(=O)O)C(=O)N[C@@H](Cc1ccc(OS(=O)(=O)O)cc1)C(=O)N[C@@H](C)C(=O)N[C@@H](CCC(N)=O)C(=O)O (H-DFEEIPEE[sY]AQ-OH) |
| – | 1.6 | CC[C@H](C)[C@H](NC(=O)[C@H](CCC(=O)O)NC(=O)[C@H](CCC(=O)O)NC(=O)[C@H](Cc1ccccc1)NC(=O)[C@H](CC(=O)O)NC(=O)CNC(=O)[C@H](CC(=O)O)NC(=O)[C@H](CC(N)=O)NC(=O)[C@H](Cc1cnc[nH]1)NC(=O)[C@H](CO)NC(=O)[C@H](CCC(N)=O)NC(=O)[C@@H]1CCCN1C(=O)[C@H](CCCCN)NC(=O)[C@@H]1CCCN1C(=O)[C@@H](NC(C)=O)[C@@H](C)O)C(=O)N1CCC[C@H]1C(=O)N[C@@H](CCC(=O)O)C(=O)N[C@@H](CCC(=O)O)C(=O)N[C@@H](Cc1ccc(OS(=O)(=O)O)cc1)C(=O)N[C@@H](CC(C)C)C(=O)N[C@@H](CCC(N)=O)C(=O)O |
| < 2 | > 200 | CC[C@H](C)[C@H](NC(=O)[C@H](CCC(=O)O)NC(=O)[C@H](CCC(=O)O)NC(=O)[C@H](CCC(=O)O)NC(=O)[C@@H](N)CC(=O)O)C(=O)N1CCC[C@H]1C(=O)N[C@@H](CCC(=O)O)C(=O)N[C@@H](CCC(=O)O)C(=O)N[C@@H](Cc1ccc(OS(=O)(=O)O)cc1)C(=O)N[C@@H](CC(C)C)C(=O)N[C@@H](CCC(N)=O)C(=O)O (H-DEEEIPEE[sY]LQ-OH) |
| < 2 | > 200 | CC[C@H](C)[C@H](NC(=O)[C@H](CCC(=O)O)NC(=O)[C@H](CCC(=O)O)NC(=O)[C@H](CC(C)C)NC(=O)[C@@H](N)CC(=O)O)C(=O)N1CCC[C@H]1C(=O)N[C@@H](CCC(=O)O)C(=O)N[C@@H](CCC(=O)O)C(=O)N[C@@H](Cc1ccc(OS(=O)(=O)O)cc1)C(=O)N[C@@H](CC(C)C)C(=O)N[C@@H](CCC(N)=O)C(=O)O (H-DLEEIPEE[sY]LQ-OH) |
| < 3 | > 200 | CC[C@H](C)[C@H](NC(=O)[C@H](CCC(=O)O)NC(=O)[C@H](C)NC(=O)[C@H](Cc1ccccc1)NC(=O)[C@@H](N)CC(=O)O)C(=O)N1CCC[C@H]1C(=O)N[C@@H](CCC(=O)O)C(=O)N[C@@H](CCC(=O)O)C(=O)N[C@@H](Cc1ccc(OS(=O)(=O)O)cc1)C(=O)N[C@@H](CC(C)C)C(=O)N[C@@H](CCC(N)=O)C(=O)O (H-DFAEIPEE[sY]LQ-OH) |
| 38 | 18.5 | CC[C@H](C)[C@H](NC(=O)[C@H](CCC(=O)O)NC(=O)[C@H](CCC(=O)O)NC(=O)[C@H](Cc1ccccc1)NC(=O)[C@@H](N)CC(=O)O)C(=O)N1CCC[C@H]1C(=O)N[C@@H](C)C(=O)N[C@@H](CCC(=O)O)C(=O)N[C@@H](Cc1ccc(OS(=O)(=O)O)cc1)C(=O)N[C@@H](CC(C)C)C(=O)N[C@@H](CCC(N)=O)C(=O)O (H-DFEEIPAE[sY]LQ-OH) |
